Test results: PMC9454456 (Journal of Nuclear Medicine, 2022)

Assays:
in vivo [1] = experiment: in vivo; design: species or system mice; conditions: mouse, iv, 3.4 MBq, total radioactivity, Biodistribution
Protocol: Blood and major organs were harvested immediately, weighed, and counted using a γ-counter. The radioactivity of each sample was calculated as the percentage of injected dose per gram of tissue (%ID/g) and corrected for radioactive decay.

PC3-xenografted mice [2] = conditions: mouse, in vivo
Protocol: (§1) Images were reconstructed using 3-dimensional ordered-subset expectation maximization with attenuation correction. Regions of interest were drawn over the tumors and main organs, and average signal levels in the regions were measured using an Inveon Research Workplace workstation.

physchem = type: physicochemical; conditions: pH 7.4
Protocol: The layers were separated by centrifugation at 2,000 rpm (416g) for 5 min. Aliquots of 100 μL were removed from each phase and measured in a Wizard γ-counter (PerkinElmer). Calculated logD7.4 values were expressed as the mean ± SD from 3 experiments.

in vivo [3] = conditions: mouse, iv, 7.4 MBq, total radioactivity
Protocol: as §1

NTR1 = biological target: T1, NTR1 (Homo sapiens, UniProt P30989); experiment: Competitive receptor binding assay in NTR1-positive PC3 cells; conditions: 37 kBq tracer, NT 10^-8–10^2 μM as competitive inhibitor, 60 min, 37°C, γ-counter, mean ± SD, read-out: half-maximal inhibitory concentration
T1 construct: endogenous in cells; host or cells: PC3 human prostate adenocarcinoma cells
Protocol: After incubation for 60 min at 37°C, the medium of each well was removed and the cells were washed twice with PBS. The removed medium and washing PBS were collected to represent the amount of free radioligand. The adherent cells were lysed with NaOH (0.1 M, 200 μL) and harvested after being washed twice by PBS. Finally, the cell-bound radioactivity (3 × 10^5 cells/mL) and the amount of free radioligand were measured in a γ-counter. The half-maximal inhibitory concentration was calculated using GraphPad Prism software. […] The radioactivity of adherent cells (3 × 10^5 cells/mL) was then measured after they were extracted with NaOH (0.1 M, 200 μL) and washed twice with PBS.

LNCap-xenografted mice = experiment: Small-animal PET/CT imaging, LNCap xenografts; conditions: LNCap xenograft, 7.4 MBq i.v., 1 h after injection, mean ± SD
Protocol: as §1

PC3-xenografted mice [4] = experiment: Small-animal PET/CT imaging, PC3 xenografts; conditions: PC3 xenograft, 7.4 MBq i.v., 1 h after injection, mean ± SD
Protocol: as §1

T1 sequence (P30989 whole entry): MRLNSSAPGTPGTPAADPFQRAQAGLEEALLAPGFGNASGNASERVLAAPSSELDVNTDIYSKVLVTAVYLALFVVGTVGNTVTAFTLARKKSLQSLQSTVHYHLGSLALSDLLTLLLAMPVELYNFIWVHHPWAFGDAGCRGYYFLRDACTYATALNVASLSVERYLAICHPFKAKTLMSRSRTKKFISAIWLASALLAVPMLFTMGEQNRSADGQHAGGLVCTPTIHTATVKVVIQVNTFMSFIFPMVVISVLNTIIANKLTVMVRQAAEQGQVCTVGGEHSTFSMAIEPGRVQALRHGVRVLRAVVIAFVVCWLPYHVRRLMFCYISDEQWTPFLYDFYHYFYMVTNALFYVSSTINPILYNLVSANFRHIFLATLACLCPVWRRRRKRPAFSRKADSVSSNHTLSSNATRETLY

CC(=O)NC(CCCCNC(=O)CN1CCN(CC(=O)O)CCN(CC(=O)O)CCN(CC(=O)O)CC1)C(=O)N1CCCC1C(=O)N(C)C(CCCNC(=N)N)C(=O)NC(CCCNC(=N)N)C(=O)N1CCCC1C(=O)NC(Cc1ccc(O)cc1)C(=O)NC(C(=O)NC(CC(C)C)C(=O)O)C(C)(C)C (centres unmarked) [^68Ga-DOTA-NT-20.3, metal not drawn]
tissue uptake at 5 min (in vivo [1]; Blood): 8.11 ± 1.54 %ID/g
tissue uptake at 0.25 h (in vivo [1]; Blood): 4.15 ± 0.59 %ID/g
tissue uptake at 0.5 h (in vivo [1]; Blood): 2.56 ± 0.23 %ID/g
tissue uptake at 1 h (in vivo [1]; Blood): 1.12 ± 0.22 %ID/g
tissue uptake at 2 h (in vivo [1]; Blood): 0.43 ± 0.08 %ID/g
tissue uptake at 5 min (in vivo [1]; Bone): 2.27 ± 0.29 %ID/g
tissue uptake at 0.25 h (in vivo [1]; Bone): 2.35 ± 0.52 %ID/g
tissue uptake at 0.5 h (in vivo [1]; Bone): 1.27 ± 0.08 %ID/g
tissue uptake at 1 h (in vivo [1]; Bone): 0.86 ± 0.17 %ID/g
tissue uptake at 2 h (in vivo [1]; Bone): 0.53 ± 0.17 %ID/g
tissue uptake at 5 min (in vivo [1]; Brain): 1.91 ± 0.39 %ID/g
tissue uptake at 0.25 h (in vivo [1]; Brain): 1.35 ± 0.15 %ID/g
tissue uptake at 0.5 h (in vivo [1]; Brain): 0.88 ± 0.1 %ID/g
tissue uptake at 1 h (in vivo [1]; Brain): 0.6 ± 0.05 %ID/g
tissue uptake at 2 h (in vivo [1]; Brain): 0.33 ± 0.1 %ID/g
tissue uptake at 5 min (in vivo [1]; Fat): 1.42 ± 0.23 %ID/g
tissue uptake at 0.25 h (in vivo [1]; Fat): 1.11 ± 0.23 %ID/g
tissue uptake at 0.5 h (in vivo [1]; Fat): 0.62 ± 0.11 %ID/g
tissue uptake at 1 h (in vivo [1]; Fat): 0.32 ± 0.03 %ID/g
tissue uptake at 2 h (in vivo [1]; Fat): 0.32 ± 0.07 %ID/g
tissue uptake at 5 min (in vivo [1]; Heart): 7.7 ± 0.9 %ID/g
tissue uptake at 0.25 h (in vivo [1]; Heart): 3.88 ± 0.18 %ID/g
tissue uptake at 0.5 h (in vivo [1]; Heart): 2.78 ± 0.36 %ID/g
tissue uptake at 1 h (in vivo [1]; Heart): 1.57 ± 0.18 %ID/g
tissue uptake at 2 h (in vivo [1]; Heart): 0.58 ± 0.11 %ID/g
tissue uptake at 5 min (in vivo [1]; Intestine): 3.28 ± 0.3 %ID/g
tissue uptake at 0.25 h (in vivo [1]; Intestine): 2.31 ± 0.92 %ID/g
tissue uptake at 0.5 h (in vivo [1]; Intestine): 1.47 ± 0.26 %ID/g
tissue uptake at 1 h (in vivo [1]; Intestine): 0.77 ± 0.24 %ID/g
tissue uptake at 2 h (in vivo [1]; Intestine): 0.38 ± 0.04 %ID/g
tissue uptake at 5 min (in vivo [1]; Kidney): 18.4 ± 1.27 %ID/g
tissue uptake at 0.25 h (in vivo [1]; Kidney): 21.2 ± 1.95 %ID/g
tissue uptake at 0.5 h (in vivo [1]; Kidney): 23.1 ± 1.94 %ID/g
tissue uptake at 1 h (in vivo [1]; Kidney): 24.6 ± 0.98 %ID/g
tissue uptake at 2 h (in vivo [1]; Kidney): 26.1 ± 0.79 %ID/g
tissue uptake at 5 min (in vivo [1]; Liver): 5.46 ± 1.01 %ID/g
tissue uptake at 0.25 h (in vivo [1]; Liver): 3.17 ± 0.45 %ID/g
tissue uptake at 0.5 h (in vivo [1]; Liver): 2.02 ± 0.48 %ID/g
tissue uptake at 1 h (in vivo [1]; Liver): 1.44 ± 0.2 %ID/g
tissue uptake at 2 h (in vivo [1]; Liver): 0.86 ± 0.49 %ID/g
tissue uptake at 5 min (in vivo [1]; Lung): 5.18 ± 0.16 %ID/g
tissue uptake at 0.25 h (in vivo [1]; Lung): 3.28 ± 0.62 %ID/g
tissue uptake at 0.5 h (in vivo [1]; Lung): 1.91 ± 0.15 %ID/g
tissue uptake at 1 h (in vivo [1]; Lung): 1.2 ± 0.23 %ID/g
tissue uptake at 2 h (in vivo [1]; Lung): 0.75 ± 0.15 %ID/g
tissue uptake at 5 min (in vivo [1]; Muscle): 1.93 ± 0.65 %ID/g
tissue uptake at 0.25 h (in vivo [1]; Muscle): 1.44 ± 0.17 %ID/g
tissue uptake at 0.5 h (in vivo [1]; Muscle): 0.96 ± 0.08 %ID/g
tissue uptake at 1 h (in vivo [1]; Muscle): 0.51 ± 0.02 %ID/g
tissue uptake at 2 h (in vivo [1]; Muscle): 0.32 ± 0.04 %ID/g
tissue uptake at 5 min (in vivo [1]; Pancreas): 2.88 ± 0.61 %ID/g
tissue uptake at 0.25 h (in vivo [1]; Pancreas): 2.03 ± 0.26 %ID/g
tissue uptake at 0.5 h (in vivo [1]; Pancreas): 1.59 ± 0.6 %ID/g
tissue uptake at 1 h (in vivo [1]; Pancreas): 1.05 ± 0.07 %ID/g
tissue uptake at 2 h (in vivo [1]; Pancreas): 0.36 ± 0.04 %ID/g
tissue uptake at 5 min (in vivo [1]; Spleen): 3.97 ± 0.39 %ID/g
tissue uptake at 0.25 h (in vivo [1]; Spleen): 2.81 ± 0.47 %ID/g
tissue uptake at 0.5 h (in vivo [1]; Spleen): 1.85 ± 0.43 %ID/g
tissue uptake at 1 h (in vivo [1]; Spleen): 1.06 ± 0.27 %ID/g
tissue uptake at 2 h (in vivo [1]; Spleen): 0.41 ± 0.04 %ID/g
tissue uptake at 5 min (in vivo [1]; Stomach): 3.56 ± 0.31 %ID/g
tissue uptake at 0.25 h (in vivo [1]; Stomach): 2.49 ± 0.35 %ID/g
tissue uptake at 0.5 h (in vivo [1]; Stomach): 1.75 ± 0.38 %ID/g
tissue uptake at 1 h (in vivo [1]; Stomach): 0.91 ± 0.18 %ID/g
tissue uptake at 5 min (in vivo [1]; Testis): 1.62 ± 0.11 %ID/g
tissue uptake at 0.25 h (in vivo [1]; Testis): 1.31 ± 0.05 %ID/g
tissue uptake at 0.5 h (in vivo [1]; Testis): 0.8 ± 0.06 %ID/g
tissue uptake at 1 h (in vivo [1]; Testis): 0.42 ± 0.04 %ID/g
tissue uptake at 2 h (in vivo [1]; Testis): 0.31 ± 0.1 %ID/g
tissue uptake at 5 min (in vivo [1]; Tumor): 2.81 ± 0.39 %ID/g
tissue uptake at 0.25 h (in vivo [1]; Tumor): 3.93 ± 0.43 %ID/g
tissue uptake at 0.5 h (in vivo [1]; Tumor): 5.7 ± 0.8 %ID/g
tissue uptake at 1 h (in vivo [1]; Tumor): 6.26 ± 0.41 %ID/g
tissue uptake at 2 h (in vivo [1]; Tumor): 3.74 ± 0.56 %ID/g
tumor retention time (PC3-xenografted mice [2]): up to 4 h
logD (physchem): -3.68 ± 0.14
tissue uptake at 0.5 h (in vivo [3]): 4.53 ± 1.26 %ID/g
IC50 (NTR1): 7.59 ± 0.41 nM

O=C([O-])CN(CCN(CC(=O)[O-])Cc1cc(CCC(=O)NCCCCCC(=O)NCCCC[C@H](NC(=O)N[C@@H](CCC(=O)O)C(=O)O)C(=O)O)ccc1[O-])Cc1cc(CCC(=O)O)ccc1[O-].[68Ga+3].[OH3+] [^68Ga-PSMA-11]
tumor uptake (PET region of interest) (LNCap-xenografted mice): 8.60 ± 2.11 %ID/g
tumor uptake (PET region of interest) (PC3-xenografted mice [4]): 0.53 ± 0.05 %ID/g
